Assay results from PMC8062851, “2-Methoxyestradiol and its derivatives inhibit store-operated Ca^2+ entry in T cells: Identification of a new and potent inhibitor” (Biochimica et Biophysica Acta. Molecular Cell Research, 2021).

Columns and labels:
Type in all cases: cell-based
[1] = test system: SOCE in rat TMBP cells; experiment: SOCE inhibition, Ca2+ free/Ca2+ re-addition protocol in primary rat TMBP cells
Description: Jurkat T-lymphocytes, primary human CD4^+ T cells and H1299 cells were pelleted at 450 ×g for 5 min, rat TMBP at 300 ×g for 8 min at room temperature and were resuspended in 1 ml of either standard JMP medium (Jurkat, H1299 and human CD4^+ T cells) or standard DMEM based medium containing 10% fetal bovine serum (FBS) (v/v) (TMBP cells). Resting TMBP cells (day 5–7 after re-stimulation) after the second to fifth re-stimulation were thawed from liquid nitrogen 12 to 40 h prior to Fura2-loading. After pre-incubation for 5 min at 37 °C, cells were incubated with 4 μM Fura2-AM for 15 min at 37 °C. After addition of the dye, cells were kept in the dark. Afterwards, cells and the dye were diluted by addition of 4 ml standard medium and incubated for another 15 min. Cells were washed twice in Ca^2+ buffer (140 mM NaCl, 5 mM KCl, 1 mM MgSO4, 1 mM CaCl2, 1 mM NaH2PO4, 20 mM HEPES, 5.5 mM glucose; pH 7.4 (NaOH), sterile filtered) and were diluted to a concentration of 2*10^6 cells/ml. […]
10^6 Jurkat T-lymphocytes, H1299 cells, TMBP cells or 4*10^6 primary human CD4^+ T cells were added into a 10 × 10 mm quartz glass cuvette (Hellma Analytics, Germany) that was placed into a fluorescence spectrophotometer (F-2710, Hitachi, Japan). […] Fluorescence intensity was measured at an emission wavelength of 495 ± 5 nm for both excitation wavelengths. […]

[2] = biological target: T1, ORAI1 (Homo sapiens, UniProt Q96D31); experiment: Live cell Ca2+ imaging of G-GECO1.2-ORAI1 transfected Jurkat T cells; settings: 10 μM
T1 construct: host or cells: Jurkat T-lymphocytes (electroporation)
Description: 12.5 ∗ 10^6 Jurkat T–lymphocytes were pelleted at 400 to 450 ×g for 5 min at room temperature and pellets were dissolved in 500 μl RPMI 1640 medium (Gibco) without phenol red containing L-glutamine, supplemented with 7.5% (v/v) NCS. 30 μg plasmid-DNA (G-GECO1.2-ORAI1) was transferred into a 4 mm electroporation cuvette (Biozym, Austria) and the Jurkat T-lymphocytes were added. G-GECO1.2-ORAI1 was a gift from Michael Cahalan, USA (Addgene plasmid # 73562). After an incubation of 5 min at 37 °C, cells were electroporated with 960 μF and 240 V (τ: […]). […]
17 to 22 h after electroporation, 5 ∗ 10^4 cells were pelleted at 400–450 ×g for 5 min at room temperature and cell pellets were dissolved in 50 μl nominal Ca^2+ free buffer. […] The fluorophore was excited at 488 nm every 2 s for 30 min and fluorescence was measured at 520 nm using Volocity (Version 6.3, Perkin Elmer).
Using ImageJ (Version 1.51 k, National Institutes of Health, USA) the pictures were analyzed for mean fluorescence in the outer ring of Jurkat T-lymphocytes employing ring-shaped regions of interest (ROIs). […] The mean background fluorescence values were subtracted from the signal in every image. For quantitative analysis, fluorescence intensities were normalized to the first fluorescence intensity (F/F0).

[3] = test system: human PBMCs; experiment: In vitro activation of human PBMCs by anti-CD3, interferon-γ mRNA by qPCR; settings: human PBMC; anti-CD3 stimulation; 24 h; qPCR
Description: In vitro activation assays were performed in 96-well plates. Briefly, 10^5 PBMCs isolated from human peripheral blood by Ficoll gradient were added onto plates coated with anti-human CD3 monoclonal antibody (5 μg ml^−1 in PBS, clone OKT3, Biolegend). 2ME2 or STX564 dissolved in DMSO were added in varying concentrations (0.01, 0.1, 1, 10 μM). […]. PBMC activation on mRNA level was determined using qPCR on samples collected 24 h after CD3 stimulation.
Total RNA was isolated using the standard TRIzol method. cDNA was synthesized using the RevertAid First Strand cDNA Synthesis Kit (Thermo Fisher Scientific). Quantitative PCR (qPCR) was performed using the StepOnePlus™ Real-Time PCR System (Applied Biosystems), as previously described [[23], [24], [25]]. Rat TMBP cell data were obtained from three to four independent duplicate measurements. β-actin served as housekeeping gene. Human PBMC data were obtained from two independent healthy donors and duplicate measurements (representative data of one donor are shown). HPRT served as housekeeping gene. For all probes (TaqMan), a combination of 5′-FAM and 3′-TAMRA quencher was used as described.

T1 sequence (Q96D31 whole entry): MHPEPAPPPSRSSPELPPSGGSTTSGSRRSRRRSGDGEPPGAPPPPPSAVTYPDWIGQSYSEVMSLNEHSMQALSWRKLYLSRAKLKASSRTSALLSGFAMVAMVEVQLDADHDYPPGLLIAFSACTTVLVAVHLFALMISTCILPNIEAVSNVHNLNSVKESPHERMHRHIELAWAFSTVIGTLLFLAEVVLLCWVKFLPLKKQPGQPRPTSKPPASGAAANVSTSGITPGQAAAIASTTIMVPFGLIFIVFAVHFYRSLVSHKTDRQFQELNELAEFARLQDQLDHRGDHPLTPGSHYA

## CCc1cc2c(cc1OS(N)(=O)=O)CC[C@@H]1[C@@H]2CC[C@]2(C)[C@@H](CC#N)CC[C@@H]12 [STX564, 2-ethyl-3-sulfamoyloxy-17β-cyanomethylestra-1,3,5(10)-triene]
[1]
  IC50: 800 nM
[2]
  SOCE by ORAI1 (G-GECO1.2-ORAI1 fluorescence): almost completely diminished
[3]
  concentration at which antagonist effects on interferon-γ expression were observed: ≥ 1 µM
